In US20250367114A1, “INHALABLE COMPOSITION FOR ENHANCING ALERTNESS AND VITALITY AND DEVICE FOR SUPPLYING THE INHALABLE COMPOSITION” (KT&G CORPORATION, priority 2024, published 2025):

Test system: C57BL/6 mice
Test: general behavioral experiments (LABORAS) after oral administration of caffeine
Assay type: in vivo
Conditions: for Distance (distance of movement) / Number of times (number of movements) / Speed (speed of movement) / Time (time of movement): measured for an hour
Procedure: The experimental animals were C57BL/6 mice (male, 10 weeks old) purchased from KOATECH after receiving approval from the Institutional Animal Care and Use Committee (IACUC). The experimental animals were acclimatized for a week in the breeding room of the bio-efficacy evaluation center of KT&G (temperature 23±2° C., humidity 50±10%, light-dark cycle 12 hours) and then used in the experiments.
Caffeine was dissolved in a 0.9% saline solution and administered orally to the mice by using Zonde at a dosage of 10 ml/kg, and then general behavioral experiments were conducted. Samples of experimental examples 1 to 3 below were orally administered to the C57BL/6 mice, and then the number of movements, the speed of movement (mm/s), the distance of movement (meter), and the time of movement (sec) for an hour were measured using a LABORAS behavioral device.
Experimental example 1 was a control group, in which only 10 ml/kg of a 0.9% saline solution was orally administered. In experimental example 2, caffeine was dissolved in a 0.9% saline solution at a dose of 5 mg/kg and orally administered by using Zonde. In experimental example 3, caffeine was dissolved in a 0.9% saline solution at a dose of 30 mg/kg and orally administered by using Zonde. With respect to each of experimental examples 1 to 3, the alertness effect of caffeine was verified through general behavioral experiments, and results thereof are shown in Table 1 below.

[1] = caffeine 5 mg/kg oral in 0.9% saline
[2] = caffeine 30 mg/kg oral in 0.9% saline

Cn1c(=O)c2c(ncn2C)n(C)c1=O [Experimental example 2, caffeine]
alertness effect (in words) (caffeine 5 mg/kg oral): almost no effect
Distance (distance of movement) [1]: 20.48 ± 3.27 meter
Number of times (number of movements) [1]: 532.5 ± 66.33 count
Speed (speed of movement) [1]: 5.689 ± 0.91 mm/s
Time (time of movement) [1]: 405.65 ± 21.89 s
alertness effect (in words) (caffeine 30 mg/kg oral): alertness effect was observed
Distance (distance of movement) [2]: 33.59 ± 7.85 meter
Number of times (number of movements) [2]: 1034.5 ± 220.05 count
Speed (speed of movement) [2]: 9.33 ± 2.18 mm/s
Time (time of movement) [2]: 884.15 ± 154.86 s
